# From US5278171A, “Azadecalin amides and thioamides as inhibitors of cholesterol biosynthesis” (Merrell Dow Pharmaceuticals Inc., priority 1991, dated 1994)
# Columns and labels:
# Oxidosqualene cyclase = test: Inhibition of Purified Oxidosqualene Cyclase (I10); type: biochemical; conditions: purified oxidosqualene cyclase from rat liver microsomes, 10 μM [3H]squalene monoepoxide, pH 7.4, 37° C., 40 minutes
# Method: Oxidosqualene cyclase is purified from rat liver microsomes by the sequential methods of: 1) solubilization with the detergent lauryl maltoside and 2) FPLC anion-exchange chromatography. Compounds are tested to determine their ability to inhibit the conversion of squalene monoepoxide to lanosterol catalyzed by the purified oxidosqualene cyclase. The reaction mixture (final volume, 200 μl) contains potassium phosphate buffer (50 mM, pH 7.4), Na2 EDTA (500 μM), Tween 80 (0.1%), [^3 H]squalene monoepoxide (10 μM of the racemic mixture, 50 μCi/μmol), test compound (10 μM) and purified oxidosqualene cyclase (50μg). The reagents, prior to mixing are equilibrated at 37° C. for 10 minutes. The reaction is initiated by adding enzyme. The mixture is incubated for 40 minutes with shaking in a water bath. The reaction is terminated by the addition of 5 ml of CHCl3 /MeOH (2:1, v/v), 0.8 ml of water and 10 μg each of squalene monoepoxide, squalene diepoxide, lanosterol and cholesterol. The organic layer is isolated and evaporated to dryness under nitrogen. […] Radioactivity is quantitated using an in-line scintillation counter.
# [1] = tested on: Oxidosqualene Cyclase in HepG2 Cells; test: Inhibition of Oxidosqualene Cyclase in HepG2 Cells (IC50 for the inhibition of [14C]cholesterol biosynthesis); type: cell-based; conditions: Homo sapiens, read-out: IC50 HepG2 Cell
# Method: 1. Inhibition of Oxidosqualene Cyclase in HepG2 Cells (IC50)
# HepG2 cells, obtained from American Type Culture Collection, are seeded into plastic 6-well multiwell dishes and grown to 60-70% confluency in an atmosphere of 5%CO2 at 37° C. using Minimal Essential Media supplemented with 10% fetal bovine serum as culture media. The cells are washed and the media is replaced with one containing 10% lipoprotein-deficient serum instead of 10% fetal bovine serum. Twenty-four hours later the test compound is added to the culture media in ethanol to obtain concentrations of between 0 and 100 μM. One hour after the addition of the test compound, 2.0 μC of [^14 C]acetate is added to each well and the cells are allowed to incubate for an additional 2-3 hours. The cells are then harvested and extracted for analysis of ^14 C-labeled cholesterol, squalene monoepoxide and squalene diepoxide. These metabolites are separated and identified by a combination of high performance liquid chromatography and flow-through liquid scintillation spectroscopy. An IC50 for the inhibition of [^14 C]cholesterol biosynthesis is calculated based on the radioactivity in controls and treated cells.
smiles,measurement,setting,value
"CC(C)CCSCCCCC(=O)N1CC[C@H]2[C@H](C)[C@@H](O)CC[C@]2(C)C1 (relative stereo) [Example 100905, N-[1-Oxo-5-(3-methylbutylmercapto)pentyl]-8-aza-4α,10-dimethyl-trans-decal-3β-ol]",I10 purified enzyme (percent inhibition of oxidosqualene cyclase activity at 10 μM test compound),Oxidosqualene cyclase,100%
same,IC50,[1],52 µM
"CCCCCCCCCCCC(=O)N1CC[C@H]2[C@H](C)[C@@H](O)CC[C@]2(C)C1 (relative stereo) [Example 102417, N-(1-Oxododecyl)-8-aza-4α,10-dimethyl-trans-decal-3β-ol]",IC50,[1],0.7 µM
